Key:
[1] = system: MRC-5 cell (lung fibroblast); test: In vitro delivery of lipid nucleic acid mixture, RT-qPCR of intracellular small RNA; type: cell-based; details: for delivery of double-stranded RNA into MRC-5 cells (real-time PCR) / delivery of HJT-sRNA-m7 single-stranded RNA into MRC-5 cells (real-time PCR): single lipid; for delivery of double-stranded RNA into MRC-5 cells (real-time PCR): boiling (heating) method, FIGS. 77, 91; for delivery of HJT-sRNA-m7 single-stranded RNA into MRC-5 cells (real-time PCR): boiling method, FIGS. 78, 92, 103
Summary of the method: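 A549 or MRC-5 cells seeded overnight, then given lipid–HJT-sRNA-m7 mixture (ether-evaporation or heated chloroform preparation) at 100 nM sRNA final for 12–24 h. After PBS washes, intracellular sRNA measured by stem-loop RT and SYBR Green qPCR; relative level by 2-ΔCt method with U6 reference.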

A549 cell line = test: Fluorescence in situ hybridization (FISH) of small RNA; type: cell-based, human; details: FIG. 12
Description: 3.3.3 Fluorescence in Situ Hybridization (FISH) of Small RNA
2) Fix in 4% paraformaldehyde (500 μl/well, prepared in PBS buffer) at room temperature for 20 min.
4) PBS was removed, and cells were permeabilized with PK (proteinase K) buffer at room temperature for 10 min.
9) The culture plate was placed in a hybridization cassette in hybridization buffer (50% formamide, 5×SSC, 5×Denharts, 250 μg/mL yeast RNA, 500 μg/mL herring sperm DNA) and pre-incubated at room temperature for 1 hour.
10) Add RNA probes (HJT-sRNA-m7 probe: 5′-[…]-3′ (SEQ ID NO: 27), Scrambled probe: 5′-[…]-3′ (SEQ ID NO: 28), U6 probe: 5′-TTTGCGTGTCATCCTTGCG-3′ (SEQ ID NO: 29)) to the hybridization buffer (the concentration of RNA probes was 0.1-0.2 ng/μl), denature at 85° C. for 5 min, and quickly place it on ice. […]
Mixtures of soybean PC, lipid No. 11 (18:0/18:2) and lipid No. 12 (16:0/18:2), and various small RNA(see below Table 3) were prepared by the reverse evaporation method and then added into A549 cell line (the final concentration of sRNA was 200 nM); the negative control group (control) was directly added with the same concentration of sRNA; the positive control group (RNAimax) was transfected with Lipofectamine RNAimax (transfection reagent 6 μ/well). The abundance of sRNA in the cells was detected by Taqman probe after 3 hours, and the relative expression level of sRNA was calculated by 2-ΔCt method.

[2] = system: Luciferase with the wild-type 3′UTR in the target gene; test: Luciferase reporter with 3′UTR of target gene after lipid-mediated small RNA delivery; type: cell-based; details: FIG. 13; wild-type 3′UTR
[3] = as above; type: cell-based; details: FIG. 13; mutated 3′UTR

CCCCCCCCCCCCCCCCCCC[C@@H](O)[C@@H](N)CO [No. 41, Sphinganine (d22:0)]
delivery effect relative to that of RNAiMAX (real-time PCR) ([1]; double-stranded HJT-sRNA-m7, reverse evaporation method, FIG. 77): significantly higher than that of RNAiMAX
delivery of double-stranded RNA into MRC-5 cells (real-time PCR) [1]: delivered double-stranded RNA into MRC-5 cells
delivery of HJT-sRNA-m7 single-stranded RNA into MRC-5 cells (real-time PCR) [1]: delivered HJT-sRNA-m7 single-stranded RNA into A549 and MRC-5 cells

CCCCC/C=C\C/C=C\CCCCCCCC(=O)O[C@H](COC(=O)CCCCCCCCCCCCCCC)COP(=O)([O-])OCC[N+](C)(C)C [No. 12, (2-{[(2R)-3-(hexadecanoyloxy)-2-[(9Z,12Z)-octadeca-9,12-dienoyloxy]propylphosphonato]oxy}ethyl) trimethylazanium]
localization of delivered nucleic acid (FISH) (A549 cell line): entered into cytoplasm and were primarily localized in cytoplasm
relative expression level of Luciferase with wild-type 3′UTR [2]: reduced the relative expression level of the Luciferase with the wild-type 3′UTR in the target gene
action on Luciferase with mutated 3′UTR [3]: did not act on the mutated 3′UTR of their target genes

CCCCCC/C=C\CCCCCCCC(=O)O[C@H](COC(=O)CCCCCCCCCCCCCCC)COP(=O)(O)OCCN [No. 38, (2-aminoethoxy) [(2R)-2-[(9Z)-hexadec-9-enoyloxy]-3-(hexadecanoyloxy)propoxy] phosphinic acid]
amount of HJT-sRNA-m7 that entered the cells (RT-qPCR) ([1]; Example 2-1, FIG. 33, double-stranded, 100 nM, 24 hours, boiling 100° C. 30 min, No. 38 series): effectively delivered nucleic acids into MRC-5 cells, showing an effect close to the transfection reagent RNAiMAX
delivery effect relative to that of RNAiMAX (real-time PCR) ([1]; double-stranded RNA, heating method, FIG. 91): about twice
delivery of double-stranded RNA into MRC-5 cells (real-time PCR) [1]: delivered double-stranded RNA into A549 and MRC-5 cells
delivery of HJT-sRNA-m7 single-stranded RNA into MRC-5 cells (real-time PCR) [1]: the efficiency of delivery was much higher than that of RNAiMAX

CCCCC/C=C\C/C=C\CCCCCCCC(=O)O[C@H](COC(=O)CCCCCCCCCCCCCCCCC)COP(=O)([O-])OCC[N+](C)(C)C [No. 11, trimethyl(2-{[(2R)-2-[(9Z, 12Z)-octadeca-9,12-dienoyloxy]-3-(octadecanoyloxy)propyl-phosphonato]oxy}ethyl) azanium]
localization of delivered nucleic acid (FISH) (A549 cell line): entered into cytoplasm and were primarily localized in cytoplasm
relative expression level of Luciferase with wild-type 3′UTR [2]: reduced the relative expression level of the Luciferase with the wild-type 3′UTR in the target gene
action on Luciferase with mutated 3′UTR [3]: did not act on the mutated 3′UTR of their target genes

— US20210100905A1, “APPLICATION OF COMPOUND OR TRADITIONAL CHINESE MEDICINE EXTRACT IN PREPARATION OF NUCLEIC ACID DELIVERY AGENT, AND RELATED PRODUCTS” (INSTITUTE OF BASIC MEDICAL SCIENCES CHINESE ACADEMY OF …, priority 2018, published 2021)
